As a reminder, the inhibition is how much of the control response was suppressed. A lower inhibition goes with a response near the control. For orientation: IC50 means the concentration needed to halve the response being measured.

Assay [1] deals with T1, TEAD2 (Homo sapiens (Human), UniProt Q15562). The assay can be described thus: In vitro palmitoylation (TEAD2 autopalmitoylation, streptavidin blot). Format: biochemical. The conditions noted are these: compound at 10 μM; Table 2. Put shortly:
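Autopalmitoylation read by streptavidin-HRP Western blot after CuSO4/TBTA/TCEP click with 100 μM biotin-azide, 1 h RT, with His-HRP probed separately. Before that, TEAD2 protein (GST or His6, 500 ng) given compound for 15 min then 1 μM alkyne palmitoyl-CoA for 30 min; percent inhibition versus DMSO-treated samples.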

The target of assay [2] is T1, TEAD2. In words: CMP assay (CPM fluorescence detection of free CoA). Format: biochemical. The conditions noted are these: Table 2; read-out: IC50 μM (CMP assay). On the procedure:
7-Diethylamino-3-(4′-Maleimidylphenyl)-4-Methylcoumarin (CPM), which reacts with thiol of CoA liberated in the enzymatic reaction, and gives fluorescent signal (excitation ˜350-380, emission-460-480). The assay detects the product (free CoA) which is produced from palmitoyl-CoA as a method to detect the enzymatic activity. Test compounds that inhibit TEAD activity are therefore able to block the CMP fluorescent signal.
TEAD2/4 protein (10 μL of a 50 ng/μL solution) and a solution the test compound (0.5 μL, variable concentration) were pre-incubated for 30 min at r.t. A mixture prepared from MES pH 6.4 buffer (6.5 μL of a 50 mM solution), EDTA (1 μL of a 20 mM solution), palmitoyl-CoA (1 μL of a 20 μM solution), and 7-diethylamino-3-(4′-maleimidylphenyl)-4-methylcoumarin (1 μL of a 10 μM solution) was added and the resulting mixture was mixed well using a pipette. The solution was then incubated at r.t. for 30-120 min. in the dark, and fluorescence was detected at […] every 30 min. until the fluorescence signal is saturated. An IC50 for the ability of the compound to inhibit fluorescence is calculated from the results.

T1 sequence (Q15562 whole entry): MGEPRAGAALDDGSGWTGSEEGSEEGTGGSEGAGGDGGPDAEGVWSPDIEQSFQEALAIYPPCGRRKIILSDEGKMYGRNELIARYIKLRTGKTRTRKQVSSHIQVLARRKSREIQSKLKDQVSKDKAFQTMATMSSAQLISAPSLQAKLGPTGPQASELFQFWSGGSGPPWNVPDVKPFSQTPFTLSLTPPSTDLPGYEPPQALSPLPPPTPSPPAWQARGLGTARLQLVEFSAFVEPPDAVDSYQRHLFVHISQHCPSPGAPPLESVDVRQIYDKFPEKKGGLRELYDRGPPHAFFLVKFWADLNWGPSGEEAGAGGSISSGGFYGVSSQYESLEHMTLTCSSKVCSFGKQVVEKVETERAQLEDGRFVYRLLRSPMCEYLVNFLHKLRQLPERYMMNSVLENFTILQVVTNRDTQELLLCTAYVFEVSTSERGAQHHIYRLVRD

On TEAD2 [1], `O=C(O)c1cccnc1Nc1ccc(Oc2ccc(C34CC5CC(CC(C5)C3)C4)cc2Cl)cc1` [Compound 252] displayed an inhibition at 10 µM of 100%. Further, the IC50 on TEAD2 [2] amounted to 0.053 µM.

On TEAD2 [1], `CC12CC3CC(C)(C1)CC(c1ccc(Oc4ccc(Nc5ccccc5C(=O)O)cc4)c(Cl)c1)(C3)C2` [Compound 253] came in with an inhibition at 10 µM of 100%. Further, the half-inhibitory concentration (IC50) at TEAD2 [2] was determined as 0.099 µM.

As to `CC12CC3CC(C)(C1)CC(c1ccc(Oc4ccc(Nc5ncccc5C(=O)O)cc4)c(Cl)c1)(C3)C2` [Compound 254], the inhibition at 10 µM against TEAD2 [1] turned out to be 100%. In addition, on TEAD2 [2], the IC50 is 0.297 µM.

Source of the values: patent publication US12187722B2, “Small molecule inhibitors of TEAD transcription factors” (The General Hospital Corporation, priority 2019, dated 2025).
